Consider 16 compounds from ChEMBL document CHEMBL1148559, “Synthesis and monoamine transporter affinity of new 2beta-carbomethoxy-3beta-[aryl or heteroaryl]phenyltropanes” (Bioorg Med Chem Lett, 2006).

The target of test [1] is Norepinephrine transporter (Rattus norvegicus, UniProt Q9WTR4). Kind of test: Displacement of [3H]nisoxetine from NET in rat […]. It counts as tissue-based.
Test [2] deals with Sodium-dependent serotonin transporter (Rattus norvegicus, UniProt P31652). Briefly: Displacement of [3H]paroxetine from SERT in rat frontoparietal cerebral cortex. It counts as tissue-based. On the technique in general: Loss of bound radioactivity is the signal in a displacement assay; it reports binding, not function.
Sodium-dependent serotonin transporter, sequence (P31652 whole entry): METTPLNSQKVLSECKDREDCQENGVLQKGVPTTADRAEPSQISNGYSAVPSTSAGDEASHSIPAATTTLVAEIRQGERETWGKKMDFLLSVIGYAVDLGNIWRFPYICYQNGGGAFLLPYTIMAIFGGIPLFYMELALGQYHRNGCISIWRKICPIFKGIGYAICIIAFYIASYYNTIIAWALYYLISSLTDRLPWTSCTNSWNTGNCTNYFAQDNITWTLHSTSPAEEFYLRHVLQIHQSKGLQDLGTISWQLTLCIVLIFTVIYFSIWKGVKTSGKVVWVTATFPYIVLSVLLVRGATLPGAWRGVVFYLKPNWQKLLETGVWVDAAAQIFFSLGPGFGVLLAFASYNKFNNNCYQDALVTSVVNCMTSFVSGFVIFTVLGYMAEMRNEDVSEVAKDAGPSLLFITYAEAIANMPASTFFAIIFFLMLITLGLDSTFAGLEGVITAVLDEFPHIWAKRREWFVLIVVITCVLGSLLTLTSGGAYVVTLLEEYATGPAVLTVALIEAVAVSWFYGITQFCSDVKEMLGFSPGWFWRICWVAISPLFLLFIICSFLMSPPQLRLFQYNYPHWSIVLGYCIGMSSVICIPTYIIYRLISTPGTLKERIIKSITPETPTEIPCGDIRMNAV
For test [3], the target named is Sodium-dependent dopamine transporter (Rattus norvegicus, UniProt P23977). Kind of test: Displacement of [3H]GBR-12935 from DAT in rat […]. It counts as tissue-based.
Sodium-dependent dopamine transporter, sequence (P23977 whole entry): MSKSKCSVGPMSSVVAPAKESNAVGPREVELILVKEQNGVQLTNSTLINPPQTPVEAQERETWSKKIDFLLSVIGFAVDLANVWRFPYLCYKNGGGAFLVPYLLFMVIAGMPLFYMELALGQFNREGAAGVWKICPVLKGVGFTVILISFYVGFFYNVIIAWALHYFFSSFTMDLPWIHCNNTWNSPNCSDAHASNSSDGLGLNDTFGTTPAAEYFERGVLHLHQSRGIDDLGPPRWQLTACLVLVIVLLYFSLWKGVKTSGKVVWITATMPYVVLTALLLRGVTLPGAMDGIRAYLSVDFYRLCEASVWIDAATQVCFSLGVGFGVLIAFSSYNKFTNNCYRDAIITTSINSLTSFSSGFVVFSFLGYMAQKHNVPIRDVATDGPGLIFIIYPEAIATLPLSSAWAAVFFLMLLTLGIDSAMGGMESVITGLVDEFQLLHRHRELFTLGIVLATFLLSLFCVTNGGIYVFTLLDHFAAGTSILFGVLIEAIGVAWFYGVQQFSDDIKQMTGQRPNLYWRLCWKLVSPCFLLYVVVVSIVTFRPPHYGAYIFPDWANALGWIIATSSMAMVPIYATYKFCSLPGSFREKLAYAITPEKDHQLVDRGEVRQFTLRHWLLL
Test [4] in a line: Selectivity for SERT over DAT. It counts as protein assay. Conditions: Rattus norvegicus.
Test [5] concerns the target Monoamine transporters; Norepinephrine & serotonin (Rattus norvegicus) (UniProt P31652+Q9WTR4). Kind of test: Selectivity for SERT over NET. It counts as protein assay.

By Ki is commonly meant a dissociation constant, usually derived from enzyme kinetics or from competition with a known ligand.

Norepinephrine transporter, sequence (Q9WTR4 whole entry): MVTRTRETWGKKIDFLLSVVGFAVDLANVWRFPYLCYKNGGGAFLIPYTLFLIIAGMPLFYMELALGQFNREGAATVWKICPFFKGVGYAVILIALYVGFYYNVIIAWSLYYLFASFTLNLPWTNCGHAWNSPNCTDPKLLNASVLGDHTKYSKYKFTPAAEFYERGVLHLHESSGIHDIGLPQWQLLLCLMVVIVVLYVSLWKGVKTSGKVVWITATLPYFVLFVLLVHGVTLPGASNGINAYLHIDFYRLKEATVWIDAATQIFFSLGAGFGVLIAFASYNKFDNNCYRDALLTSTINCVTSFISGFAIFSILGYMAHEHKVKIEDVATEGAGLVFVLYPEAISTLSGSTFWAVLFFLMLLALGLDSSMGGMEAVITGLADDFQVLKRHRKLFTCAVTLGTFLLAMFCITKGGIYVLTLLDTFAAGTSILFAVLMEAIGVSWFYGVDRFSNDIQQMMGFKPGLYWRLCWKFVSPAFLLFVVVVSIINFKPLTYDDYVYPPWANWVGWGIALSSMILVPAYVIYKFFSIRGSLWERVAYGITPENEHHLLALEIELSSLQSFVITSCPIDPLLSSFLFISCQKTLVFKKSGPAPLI

Regarding `COC(=O)C1C(c2ccc(-c3cc(F)cc(F)c3)cc2)CC2CCC1N2C` (stereo not given), the inhibitory constant (Ki) in test [1] came to 109 nM; in test [2], 0.41 nM; in test [3], 31.7 nM. Also, the Ratio Ki stood at 77 in test [4] and 265 in test [5].

As to `COC(=O)C1C(c2ccc(-c3ccco3)cc2)CC2CCC1N2C` (stereo not given), the inhibition constant Ki in test [1] was 1400 nM. The Ratio Ki in test [4] turned out to be 6.

For the compound `COC(=O)C1C2CCC(CC1c1ccc(-c3cncc(OC)c3)cc1)N2` (stereo not given), the inhibitory constant (Ki) in test [1] came to 739 nM; in test [2] it was 1.56 nM; in test [3], 332 nM. Also, in test [4], the Ratio Ki came to 212.

As for `COC(=O)C1C(c2ccc(-c3cccc(F)c3)cc2)CC2CCC1N2C` (stereo not given), the Ki was determined as 249 nM in test [1], 0.5 nM in test [2] and 25.2 nM in test [3]. Besides, the Ratio Ki in test [4] is 50; in test [5], 498.

As for `COC(=O)C1C(c2ccc(-c3cncc(OC)c3)cc2)CC2CCC1N2C` (stereo not given), the Ki in test [1] worked out at 1590 nM; in test [2], 3.91 nM; in test [3] it was 587 nM. Besides, in test [4], the Ratio Ki was found to be 150.

For `COC(=O)C1C(c2ccc(-c3ccccn3)cc2)CC2CCC1N2C` (stereo not given), in test [1], the Ki is over 10000 nM. Further, in test [4], the Ratio Ki worked out at 0.27.

Consider `COC(=O)C1C(c2ccc(-c3ccoc3)cc2)CC2CCC1N2C` (stereo not given), for which the Ki in test [1] turned out to be 127 nM; in test [2], 0.35 nM; in test [3], 14.2 nM. Also, in test [4], the Ratio Ki came to 40.

Consider `COC(=O)C1C(c2ccc(-c3cccc(N(C)C)c3)cc2)CC2CCC1N2C` (stereo not given), for which the inhibitory constant (Ki) is over 30000 nM in test [1], over 1000 nM in test [2] and 545 nM in test [3].

As for `COC(=O)C1C(c2ccc(-c3cccnc3)cc2)CC2CCC1N2C` (stereo not given), the inhibitory constant (Ki) turned out to be 1410 nM in test [1] and 26.1 nM in test [3]. For the same compound, in test [4], the Ratio Ki worked out at 7.

With `COC(=O)C1C2CCC(CC1c1ccc(-c3ccco3)cc1)N2` (stereo not given), the values for the Ki in test [1], in test [2] and in test [3] were 12.7 nM, 0.15 nM and 3.76 nM, respectively. Also, the Ratio Ki in test [4] came to 25.

Consider `COC(=O)C1C(c2ccc(-c3nccs3)cc2)CC2CCC1N2C` (stereo not given), for which the Ki was over 10000 nM in test [1], 1.67 nM in test [2] and 520 nM in test [3]. Also, the Ratio Ki in test [4] turned out to be 311.

As to `COC(=O)C1C(c2ccc(-c3cncnc3)cc2)CC2CCC1N2C` (stereo not given), in test [1], the Ki is over 10000 nM. For the same compound, the Ratio Ki in test [4] came to 110.

Consider `COC(=O)C1C(c2ccc(-c3ccncc3)cc2)CC2CCC1N2C` (stereo not given), for which the figures for the Ki in test [1], in test [2] and in test [3] were over 30000 nM, over 1000 nM and 1570 nM, respectively.

On to `COC(=O)C1C(c2ccc(-c3cnc4ccccc4c3)cc2)CC2CCC1N2C` (stereo not given), for which the Ki in test [1] is over 30000 nM. The Ratio Ki in test [4] was 3.

Regarding `COC(=O)C1C(c2ccc(-c3cnccn3)cc2)CC2CCC1N2C` (stereo not given), the Ki in test [1] was found to be 213 nM; in test [2] it was 11.3 nM; in test [3] it was 121 nM. For the same compound, in test [4], the Ratio Ki was determined as 10.

In the case of `COC(=O)C1C2CCC(CC1c1ccc(-c3nccs3)cc1)N2` (stereo not given), the inhibition constant (Ki) in test [1] stood at 213 nM; in test [2], 5.15 nM; in test [3], 69.6 nM. Further, in test [4], the Ratio Ki was found to be 13.
